pKi: −log10 of the molar value.
Target: T1, cannabinoid receptor 2 (CB2R) (Homo sapiens, UniProt P34972)
T1 construct: gene CNR2; SNAP-tagged human CB2R in HEK-293T cells
Assay: HTRF competition binding against […] fluorophore-conjugated CM157 in HEK-293T cells; also cAMP and β-arrestin II recruitment
Type: cell-based

T1 sequence (P34972 whole entry): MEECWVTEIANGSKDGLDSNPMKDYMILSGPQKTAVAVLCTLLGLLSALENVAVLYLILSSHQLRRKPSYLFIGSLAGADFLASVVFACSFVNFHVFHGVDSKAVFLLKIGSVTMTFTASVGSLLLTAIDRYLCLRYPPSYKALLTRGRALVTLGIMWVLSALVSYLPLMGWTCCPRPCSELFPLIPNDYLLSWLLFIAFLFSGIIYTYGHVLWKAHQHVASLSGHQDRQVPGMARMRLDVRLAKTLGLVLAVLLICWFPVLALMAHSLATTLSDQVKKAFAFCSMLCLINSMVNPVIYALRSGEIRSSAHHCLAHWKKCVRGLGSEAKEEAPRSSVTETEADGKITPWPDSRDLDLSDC

With CCCC(C)(C)c1ccc2c(c1)OC(C)(C)[C@@H]1CC=C(C)C[C@@H]21 [JWH-133] the pKi was 7.74.
